Where two headings read alike, the source gives them in different places.
Key:
cells [1] = assay: AP1903 amount needed in vitro for effective signaling of cells; type: cell-based; details: 1600 Da MW
Procedure: The fixed dose of AP1903 for injection used, for example, may be 0.4 mg/kg intravenously infused over 2 hours. The amount of AP1903 needed in vitro for effective signaling of cells is 10-100 nM (1600 Da MW). This equates to 16-160 μg/L or ^˜0.016-1.6 μg/kg (1.6-160 μg/kg). Doses up to 1 mg/kg were well-tolerated in the Phase I study of AP1903 described above. Therefore, 0.4 mg/kg may be a safe and effective dose of AP1903 for this Phase I study in combination with the therapeutic cells.

cells [2] = details: cited from earlier work
[3] = cited from earlier work
human CD58 = molecular target: T1, human CD58 (human, UniProt P19256 29-250); assay: inferred from T-cell degranulation (CD107a) against K562/Rat2 cells overexpressing human CD58
T1 construct: whole, on cells
T1 sequence (looked up): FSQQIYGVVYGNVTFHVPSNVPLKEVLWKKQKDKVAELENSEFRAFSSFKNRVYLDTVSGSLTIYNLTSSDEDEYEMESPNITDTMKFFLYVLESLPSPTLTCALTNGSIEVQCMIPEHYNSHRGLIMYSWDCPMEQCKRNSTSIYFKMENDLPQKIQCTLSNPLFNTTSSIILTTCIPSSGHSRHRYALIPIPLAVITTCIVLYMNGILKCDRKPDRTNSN
Procedure: FIG. 23D is a series of flow cytometry plots showing the expression of CD48, CD58 or CD59 on K562 and Rat2 cells. To confirm possible ligands for the CSR WT CD2z molecule, a panel of known and suspected ligands including human CD48, CD58, and CD59 were tested. Degranulation of engineered T cells was evaluated against the cell lines K562 and Rat2 that were made to overexpress the target ligands and confirmed for expression by FACS staining. Red histograms are unstained cells and blue histograms are cells that were electroporated/lipofected with mRNA and then stained for expression of the respective marker by FACS.
FIG. 23E is a bar graph showing that CSR CD2z recognizes human CD58, but not CD48 or CD59. To confirm possible ligands for the CSR WT CD2z molecule, a panel of known and suspected ligands including human CD48, CD58, and CD59 were tested. Degranulation of engineered T cells was evaluated against the cell lines K562 and Rat2 that were made to overexpress the target ligands and confirmed for expression by FACS staining. Cells were electroporated/lipofected with mRNA and then stained for expression of the respective marker by FACS. […] T cell degranulation is a surrogate of T cell killing that can be measured by FACS staining for intracellular CD107a expression following coculture with target cell lines expressing target antigen. […]

Molecule	amount needed for effective signaling, converted (cells [1]) [µg/L]	amount needed in vitro for effective signaling of cells (cells [2]) [nM]	plasma levels versus dose ([3]; 0.01, 0.05, 0.1, 0.5 and 1.0 mg/kg)	mean Cmax ([3]; 0.01-1.0 mg/kg dose range, IV over 2 hours) [ng/mL]	plasma level as % of maximal concentration ([3]; 0.5 hours post-dose)	plasma level as % of maximal concentration ([3]; 2 hours post-dose) [%]	plasma level as % of maximal concentration ([3]; 10 hours post-dose) [%]	well-tolerated doses ([3]; Phase I study)	binding result (human CD58)
CC[C@H](C(=O)N1CCCC[C@H]1C(=O)O[C@H](CCc1ccc(OC)c(OC)c1)c1cccc(OCC(=O)NCCNC(=O)COc2cccc([C@@H](CCc3ccc(OC)c(OC)c3)OC(=O)[C@@H]3CCCCN3C(=O)[C@@H](CC)c3cc(OC)c(OC)c(OC)c3)c2)c1)c1cc(OC)c(OC)c(OC)c1 (relative stereo) [AP1903, 2-Piperidinecarboxylic acid, 1-[(2S)-1-oxo-2-(3,4,5-trimethoxyphenyl)butyl]-, 1,2-ethanediylbis[imino(2-oxo-2,1-ethanediyl)oxy-3,1-phenylene[(1R)-3-(3,4-dimethoxyphenyl)propylidene]]ester, [2S-[1(R*),2R*[S*[S*[1(R*),2R*]]]]]-(9Cl)]	16 to 160	10 to 100	directly proportional to dose	10 to 1275	approximately 18%	~7	~1	up to 1 mg/kg	
CSR CD2z (chimeric stimulatory receptor: CD2 extracellular, transmembrane and cytoplasmic domains fused to the CD3z intracellular domain) (receptor, Expressed from mRNA on the surface of primary human T cells (degranulation assays) or K562 cells (staining); also called CSR WT CD2z; WT CD2z CSR) KEITNALETWGALGQDINLDIPSFQMSDDIDDIKWEKTSDKKKIAQFRKEKETFKEKDTYKLFKNGTLKIKHLKTDDQDIYKVSIYDTKGKNVLEKIFDLKIQERVSKPKISWTCINTTLTCEVMNGTDPELNLYQDGKHLKLSQRVITHKWTTSLSAKFKCTAGNKVSKESSVEPVSCPEKGLDIYLIIGICGGGSLLMVFVALLVFYITKRKKQRSRRNDEELETRAHRVATEERGRKPHQIPASTPQNPATSQHPPPPPGHRSQAPSHRPPPPGHRVQHQPQKRPPAPSGTQVHQQKGPPLPRPRVQPKPPHGAAENSLSPSSNRVKFSRSADAPAYKQGQNQLYNELNLGRREEYDVLDKRRGRDPEMGGKPRRKNPQEGLYNELQKDKMAEAYSEIGMKGERRRGKGHDGLYQGLSTATKDTYDALHMQALPPR									binds
